Assay results as given in patent publication US10792282B2, “Protein kinase C inhibitors and uses thereof” (Rigel Pharmaceuticals, Inc., priority 2013, dated 2020).
Where two headings read alike, the source gives them in different places.

Tested on: PKC mediated IL-2 production
Assay: IL-2 ELISA, human primary T cell, anti CD3+CD28+ (whole cell functional assay)
Assay type: cell-based
Protocol: Human primary T cells were prepared as follows. Fresh PBMC's from All Cells (Cat # PB002) were re-suspended in RPMI (RPMI-1640 with L-Glutamine; Mediatech, Inc., Herndon Va., cat. #10-040-CM) with 10% FBS and seeded into flasks and incubated at 37° C. for 2 hours to allow the monocytes to adhere. The non-adherent cells were then centrifuged and re-suspended in RPMI medium containing 40 U/ml IL2 and seeded into a flask pre-coated with 1 μg/ml aCD3 and 5 ug/ml aCD28 (Anti-Human CD3, BD Pharmingen Catalog #555336, Anti-Human CD28, Beckman Coulter Catalog # IM1376). The cells were stimulated for 3-4 days, then transferred to a fresh flask and maintained in RPMI (RPMI-1640 with L-Glutamine; Mediatech, Inc., Herndon Va., cat. #10-040-CM) with 10% FBS and 40 U/ml IL-2.
(§1) Human primary T cells (100,000 cells per well) were pre-incubated with or without test compound in RPMI-1640 with L-Glutamine and 10% FBS for 1 hour at 37° C. Cells were then stimulated by transferring them to round-bottom 96-well plates pre-coated with 1 μg/ml αCD3 and 5 μg/ml αCD28. For counter assay, cells were instead stimulated by adding 8× stock solutions of PMA and ionomycin in RPMI-1640 with L-Glutamine and 10% FBS (for final concentrations of 0.5 ng/ml PMA and 0.1 μM ionomycin, both from Calbiochem). Cells were incubated at 37° C. for 24 hours before 100 μL supernatants were harvested for quantification of IL-2 by ELISA using Human IL-2 Duoset ELISA Kit from R and D Systems, Cat. # DY202E.
Compounds 1-90 were tested in a whole cell functional assay for PKC mediated IL-2 production as follows. Human primary T cell isolation and culture: Human primary T cells were prepared as follows. Whole blood was obtained from a healthy volunteer, mixed 1:1 with PBS, layered on to Ficoll Hypaque (Amersham Pharmacia Biotech, Piscataway, N.J., Catalog #17-1440-03) in 2:1 blood/PBS:ficoll ratio and centrifuged for 30 minutes at 4° C. at 1750 rpm. The cells at the serum: ficoll interface were recovered and washed twice with 5 volumes of PBS. These freshly isolated human peripheral blood mononuclear cells were cultured in Yssel's medium containing 40 U/ml IL2 in a flask pre-coated with 1 μg/ml αCD3 and 5 μg/ml αCD28 (Anti-Human CD3, BD Pharmingen Catalog #555336, Anti-Human CD28, Beckman Coulter Catalog # IM1376). The cells were stimulated for 3-4 days, then transferred to a fresh flask and maintained in RPMI (RPMI-1640 with L-Glutamine; Mediatech, Inc., Herndon Va., cat. #10-040-CM) with 10% FBS and 40 U/ml IL-2. The primary T-cells were then washed twice with PBS to remove the IL-2.
as §1, with “Primary T cell stimulation and IL2 ELISA: Human primary” for “Human primary”, “compound in Yssel's medium for 1” for “compound in RPMI-1640 with L-Glutamine and 10% FBS for 1”, “ionomycin in Yssels (for final” for “ionomycin in RPMI-1640 with L-Glutamine and 10% FBS (for final”, “and 0.1 uM ionomycin, both” for “and 0.1 μM ionomycin, both”

[1] = Homo sapiens, T-cell, 24 h, IL-2 production, human primary T cells stimulated with αCD3 and αCD28, 24 hours, IL-2 by ELISA, read-out: EC50
[2] = Homo sapiens, T-cell, human primary T cells stimulated with αCD3 and αCD28, IL-2 by ELISA, read-out: EC50 (blocked IL-2 production)
[3] = IL-2 production, human primary T cells stimulated with αCD3 and αCD28, 24 hours, IL-2 by ELISA, read-out: EC50

Row | EC50 [1] | EC50 [2] | EC50 [3] | SMILES | EC50 (T-cell, IL-2 production, human primary T cells stimulated with αCD3 and αCD28, 24 hours, IL-2 by ELISA, read-out: EC50) | EC50 (T-cell, human primary T cells stimulated with αCD3 and αCD28, IL-2 by ELISA, read-out: EC50 (blocked IL-2 production))
1 | < 1 µM | < 10 µM |  | CC1C(Nc2nc(Nc3cc(-n4nnn(C)c4=O)c(C4CC4)cc3F)ncc2F)CC(C)(C)N2CCCC12 (single isomer, unassigned) [Compound 69, 1-(5-(5-Fluoro-4-(octahydro-5,5,8-trimethylindolizin-7-ylamino)pyrimidin-2-ylamino)-2-cyclopropyl-4-fluorophenyl)-4-methyl-1H-tetrazol-5(4H)-one] |  | 
2 | < 0.5 µM | < 10 µM |  | Cn1nnn(-c2cc(Nc3ncc(F)c(N[C@@H]4C[C@@H]5C[C@@H](F)CN5C(C)(C)C4)n3)c(F)cc2C2CC2)c1=O [Compound 64, 1-(5-(4-((2R,7R,8aR)-2-fluoro-octahydro-5,5-dimethylindolizin-7-ylamino)-5-fluoropyrimidin-2-ylamino)-2-cyclopropyl-4-fluorophenyl)-4-methyl-1H-tetrazol-5(4H)-one] |  | 
3 | < 10 µM | < 10 µM |  | Cc1nnnn1-c1cc(Nc2ncc(F)c(NC3CC(C)(C)N4CCCC4C3C)n2)ccc1F (single isomer, unassigned) [Compound 70, 5-Fluoro-N2-(4-fluoro-3-(5-methyl-1H-tetrazol-1-yl)phenyl)-N4-(octahydro-5,5,8-trimethylindolizin-7-yl)pyrimidine-2,4-diamine] |  | 
4 |  |  | < 0.5 µM | CC1C(Nc2nc(Nc3cc(OC(F)F)c(C4CC4)cc3F)ncc2F)CC(C)(C)N2CCCC12 (stereo not shown) [Compound 75] |  | 
5 |  | < 10 µM | < 10 µM | CC1(C)CC(Nc2nc(Nc3ccc(O[C@@H]4CCOC4)c(C#N)c3)ncc2F)CC2CCCN21 (single isomer, unassigned) [Compound 58] |  | 
6 | < 0.5 µM | < 10 µM |  | Cn1nnn(-c2cc(Nc3ncc(C#N)c(N[C@@H]4C[C@@H]5CCCN5C(C)(C)C4)n3)c(F)cc2OC(C)(C)CO)c1=O [Compound 84, 4-((7R,8aS)-octahydro-5,5-dimethylindolizin-7-ylamino)-2-(4-(1-hydroxy-2-methylpropan-2-yloxy)-2-fluoro-5-(4,5-dihydro-4-methyl-5-oxotetrazol-1-yl)phenylamino)pyrimidine-5-carbonitrile] |  | 
7 |  |  | < 0.5 µM | CC1(C)CC(Nc2nc(Nc3ccc(O[C@@H]4CCOC4)c(C#N)c3)ncc2F)CC2CCCN21 (single isomer, unassigned) [Compound 59] |  | 
8 | < 1 µM | < 10 µM |  | CC1(C)C[C@H](Nc2nc(Nc3cc(S(F)(F)(F)(F)F)ccc3F)ncc2F)C[C@@H]2CCCN21 [Compound 71] |  | 
9 | < 0.5 µM | < 10 µM |  | CC1(C)CC(Nc2nc(Nc3ccc(OC4COC4)c(C#N)c3)ncc2F)CC2CCCN21 (single isomer, unassigned) [Compound 63, 5-(5-fluoro-4-(octahydro-5,5-dimethylindolizin-7-ylamino)pyrimidin-2-ylamino)-2-(oxetan-3-yloxy)benzonitrile] |  | 
10 | < 10 µM | < 10 µM |  | Cn1nnn(-c2cc(Nc3ncc(F)c(N[C@H]4C[C@@H]5C[C@@H](F)CN5C(C)(C)C4)n3)c(F)cc2C2CC2)c1=O [Compound 65, 1-(5-(4-((2R,7S,8aR)-2-fluoro-octahydro-5,5-dimethylindolizin-7-ylamino)-5-fluoropyrimidin-2-ylamino)-2-cyclopropyl-4-fluorophenyl)-4-methyl-1H-tetrazol-5(4H)-one] |  | 
11 | < 0.1 µM | < 10 µM |  | Cn1nnn(-c2cc(Nc3ncc(F)c(N[C@@H]4C[C@@H]5CCCN5C(C)(C)C4)n3)ccc2OC(C)(C)CO)c1=O [Compound 86, 1-(2-(1-hydroxy-2-methylpropan-2-yloxy)-5-(4-((7R,8aS)-octahydro-5,5-dimethylindolizin-7-ylamino)-5-fluoropyrimidin-2-ylamino)phenyl)-4-methyl-1H-tetrazol-5(4H)-one] |  | 
12 | < 0.5 µM | < 10 µM |  | CC1(C)CC(Nc2nc(Nc3ccc(O[C@@H]4CCOC4)c(C#N)c3)ncc2F)CC2CCCN21 (stereo partly drawn) [Compound 57, 2-((R)-tetrahydrofuran-3-yloxy)-5-(5-fluoro-4-(octahydro-5,5-dimethylindolizin-7-ylamino)pyrimidin-2-ylamino)benzonitrile] |  | 

Continued, compound first:

Row | SMILES | EC50 [1] | EC50 [2] | EC50 [3] | EC50 (T-cell, IL-2 production, human primary T cells stimulated with αCD3 and αCD28, 24 hours, IL-2 by ELISA, read-out: EC50) | EC50 (T-cell, human primary T cells stimulated with αCD3 and αCD28, IL-2 by ELISA, read-out: EC50 (blocked IL-2 production))
13 | Cn1nnn(-c2cc(Nc3ncc(F)c(N[C@@H]4CCN5[C@@H](CCC5(C)C)C4)n3)c(F)cc2C2CC2)c1=O (single isomer, unassigned) [Compound 36] |  |  | < 10 µM |  | 
14 | Cn1nnn(-c2cc(Nc3ncc(F)c(NC4CC5CCCN5C(C)(C)C4)n3)ccc2O[C@@H]2CCOC2)c1=O (stereo partly drawn) [Compound 47, 1-(2-((R)-tetrahydrofuran-3-yloxy)-5-(5-fluoro-4-(octahydro-5,5-dimethylindolizin-7-ylamino)pyrimidin-2-ylamino)phenyl)-4-methyl-1H-tetrazol-5(4H)-one] | < 0.1 µM | < 10 µM |  |  | 
15 | Fc1cc(C2CC2)c(-n2cnnn2)cc1Nc1ncc(F)c(NC2CCN3CCCC3C2)n1 (racemic) [Compound 24, (±)-N^2-(4-cyclopropyl-2-fluoro-5-(1H-tetrazol-1-yl)phenyl)-5-fluoro-n^4-(octahydroindolizin-7-yl)pyrimidine-2,4-diamine] | < 0.5 µM | < 10 µM |  |  | 
16 | CC1(C)Oc2ccc(Nc3ncc(F)c(NC4CC5CCCN5C(C)(C)C4)n3)cc2-n2nnnc21 (stereo not shown) [Compound 3, N2-(4,4-dimethyl-4H-benzo[b]tetrazolo[1,5-d][1,4]oxazin-8-yl)-5-fluoro-N4-(octahydro-5,5-dimethylindolizin-7-amine)pyrimidine-2,4-diamine] |  |  | < 1 µM |  | 
17 | CC1(C)C[C@@H](Nc2nc(Nc3cc(-n4cnnn4)c(C4CC4)cc3F)ncc2F)C[C@@H]2CC(F)(F)CN21 [Compound 43, N^2-(4-cyclopropyl-2-fluoro-5-(1H-tetrazol-1-yl)phenyl)-5-fluoro-N^4-((7S,8aR)-2,2-difluoro-octahydro-5,5-dimethylindolizin-7-yl)pyrimidine-2,4-diamine] | < 10 µM | < 10 µM |  |  | 
18 | Cn1nnn(-c2cc(Nc3ncc(F)c(NC4CCN5CCCC5C4)n3)c(F)cc2C2CC2)c1=O (stereo not shown) [Compound 29] |  |  | < 10 µM |  | 
19 | CC1(C)CC(Nc2nc(Nc3ccc(OC4CCOCC4)c(C#N)c3)ncc2F)CC2CCCN21 (single isomer, unassigned) [Compound 41, 5-(5-fluoro-4-(octahydro-5,5-dimethylindolizin-7-ylamino)pyrimidin-2-ylamino)-2-(tetrahydro-2H-pyran-4-yloxy)benzonitrile] | < 0.5 µM | < 10 µM |  |  | 
20 | C[C@@H](O)COc1cc(F)c(Nc2ncc(F)c(N[C@@H]3C[C@@H]4CCCN4C(C)(C)C3)n2)cc1-n1nnn(C)c1=O [Compound 82, 1-(5-(4-((7R,8aS)-5,5-dimethyloctahydroindolizin-7-ylamino)-5-fluoropyrimidin-2-ylamino)-4-fluoro-2-((R)-2-hydroxypropoxy)phenyl)-4-methyl-1H-tetrazol-5(4H)-one] |  |  |  | < 0.1 µM | < 10 µM
21 | Cn1nnn(-c2cc(Nc3ncc(F)c(NC4CC5CCCN5C(C)(C)C4)n3)ccc2O[C@H]2CCOC2)c1=O (stereo partly drawn) [Compound 49, 1-(2-((S)-tetrahydrofuran-3-yloxy)-5-(5-fluoro-4-(octahydro-5,5-dimethylindolizin-7-ylamino)pyrimidin-2-ylamino)phenyl)-4-methyl-1H-tetrazol-5(4H)-one] | < 0.1 µM | < 10 µM |  |  | 
